target: T1, vanilloid receptor (Rattus norvegicus, UniProt O35433); assay: 45Ca influx test in cultured neonatal rat DRG neurons, inhibition of capsaicin response; type: cell-based; details: neonatal rat DRG neurons, capsaicin 0.5 μM, 45Ca influx; read-out: Antagonist Calcium Uptake Test (IC50)
T1 construct: DRG nerve cells from the primary culture of 2 days were equilibrated; endogenous in cells; host or cells: primary culture of dorsal root ganglion neurons from neonatal SD rats
Summary of the method: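 45Ca influx measured by scintillation counting of SDS-eluted neurons after 10 min at room temperature with test compound, 0.5 μM capsaicin (final) and 10 μCi/ml 45Ca in Ca/Mg-free HEPES-HBSS pH 7.4. Cells: primary DRG neurons from newborn SD rats, cultured 2 days with NGF and Ara-C.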

T1 sequence (O35433 whole entry): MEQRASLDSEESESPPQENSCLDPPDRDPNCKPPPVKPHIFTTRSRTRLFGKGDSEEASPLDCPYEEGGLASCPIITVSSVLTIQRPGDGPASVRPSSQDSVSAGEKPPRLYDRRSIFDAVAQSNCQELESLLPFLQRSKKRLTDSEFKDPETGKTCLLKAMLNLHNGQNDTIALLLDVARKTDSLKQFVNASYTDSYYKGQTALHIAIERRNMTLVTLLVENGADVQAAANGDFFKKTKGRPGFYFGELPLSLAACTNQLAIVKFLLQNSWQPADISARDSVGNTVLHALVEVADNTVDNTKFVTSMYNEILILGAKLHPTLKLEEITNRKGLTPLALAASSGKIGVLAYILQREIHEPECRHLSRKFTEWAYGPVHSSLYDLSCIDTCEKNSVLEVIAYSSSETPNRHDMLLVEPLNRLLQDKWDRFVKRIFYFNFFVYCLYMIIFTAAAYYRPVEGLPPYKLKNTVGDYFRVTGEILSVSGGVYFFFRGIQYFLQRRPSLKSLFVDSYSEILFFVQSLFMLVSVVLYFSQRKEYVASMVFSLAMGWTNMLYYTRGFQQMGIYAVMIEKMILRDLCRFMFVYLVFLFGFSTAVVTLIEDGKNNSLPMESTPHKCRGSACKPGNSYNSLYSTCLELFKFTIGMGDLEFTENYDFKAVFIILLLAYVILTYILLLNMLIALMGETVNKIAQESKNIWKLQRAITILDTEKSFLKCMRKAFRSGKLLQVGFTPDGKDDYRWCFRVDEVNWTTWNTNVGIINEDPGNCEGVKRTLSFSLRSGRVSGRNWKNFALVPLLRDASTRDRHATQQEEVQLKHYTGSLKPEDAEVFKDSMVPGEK

Row | Compound | IC50 [nM]
1 | C[C@@H](NC(=O)/C=C/c1ccc(C(F)(F)F)nc1CCc1ccccc1)c1ccc(NS(C)(=O)=O)c(F)c1 [Example 237, (R)—N-[1-(3-Fluoro-4-methanesulfonylamino-phenyl)-ethyl]-3-(2-phenethyl-6-trifluoromethyl-pyridin-3-yl)-acrylamide] | 96
2 | CCCCNc1nc(C(F)(F)F)ccc1/C=C/C(=O)N[C@H](C)c1cc(F)c(NS(C)(=O)=O)c(F)c1 [Example 238, (R)-3-(2-Butylamino-6-trifluoromethyl-pyridin-3-yl)-N-[(1R)-(3,5-difluoro-4-methanesulfonylamino-phenyl)-ethyl]-acrylamide] | 45
3 | C[C@@H](NC(=O)/C=C/c1ccc(C(F)(F)F)nc1N1CCCCC1)c1cc(F)c(NS(C)(=O)=O)c(F)c1 [Example 239, (R)—N-[1-(3,5-Difluoro-4-methanesulfonylamino-phenyl)-ethyl]-3-(2-piperid-1-yl-6-trifluoromethyl-pyridin-3-yl)-acrylamide] | 120
4 | CCCCNc1nc(C(F)(F)F)ccc1/C=C/C(=O)N[C@@H](C)c1cc(F)c(NS(C)(=O)=O)c(F)c1 [Example 240, (S)-3-(2-Butylamino-6-trifluoromethyl-pyridin-3-yl)-N-[(1S)-(3,5-difluoro-4-methanesulfonylamino-phenyl)-ethyl]-acrylamide] | 200
5 | CC[C@@H](C)c1nc(C(F)(F)F)ccc1/C=C/C(=O)NCc1ccc(NS(C)(=O)=O)c(C)c1 [Example 241, (R)-3-(2-sec-Butyl-6-trifluoromethyl-pyridin-3-yl)-N-1-(4-methanesulfonylamino-3-methyl-benzyl)-acrylamide] | 34
6 | CC(C)c1nc(C(F)(F)F)ccc1/C=C/C(=O)N[C@H](C)c1cc(F)c(NS(C)(=O)=O)c(F)c1 [Example 242, (R)—N-[1-(3,5-Difluoro-4-methanesulfonylamino-phenyl)-ethyl]-3-(2-isopropyl-6-trifluoromethyl-pyridin-3-yl)-acrylamide] | 25
7 | CCC(C)c1nc(C(F)(F)F)ccc1/C=C/C(=O)N[C@H](C)c1ccc(NS(C)(=O)=O)c(F)c1 (stereo partly drawn) [Example 243, (R)-3-(2-sec-Butyl-6-trifluoromethyl-pyridin-3-yl)-N-[1-(3-fluoro-4-methanesulfonylamino-phenyl)-ethyl]-acrylamide] | 41
8 | CCNc1nc(C(F)(F)F)ccc1/C=C/C(=O)N[C@H](C)c1cc(F)c(NS(C)(=O)=O)c(F)c1 [Example 244, (R)—N-[1-(3,5-Difluoro-4-methanesulfonylamino-phenyl)-ethyl]-3-(2-ethylamino-6-trifluoromethyl-pyridin-3-yl)-acrylamide] | 67
9 | CC(C)Cc1nc(C(F)(F)F)ccc1/C=C/C(=O)N[C@H](C)c1cc(F)c(NS(C)(=O)=O)c(F)c1 [Example 245, (R)—N-[1-(3,5-Difluoro-4-methanesulfonylamino-phenyl)-ethyl]-3-(2-isobutyl-6-trifluoromethyl-pyridin-3-yl)-acrylamide] | 24
10 | CCNc1nc(C(F)(F)F)ccc1/C=C/C(=O)N[C@H](C)c1ccc(NS(C)(=O)=O)c(F)c1 [Example 246, N-[1-(3-Fluoro-4-methanesulfonylamino-phenyl)-ethyl]-3-(2-ethylamino)-6-trifluoromethyl-pyridin-3-yl-acrylamide] | 10
11 | CCNc1nc(C(F)(F)F)ccc1/C=C/C(=O)NCc1ccc(NS(C)(=O)=O)c(C)c1 [Example 247, N-(4-methanesulfonylamino-3-methyl-benzyl)-3-(2-ethylamino-6-trifluoromethyl)-pyridin-3-yl-acrylamide] | 13
12 | CCCNc1nc(C(F)(F)F)ccc1/C=C/C(=O)NCc1cc(F)c(NS(C)(=O)=O)cc1F [Example 248, N-(2,5-Difluoro-4-methanesulfonylamino-benzyl)-3-(2-propylamino-6-trifluoromethyl-pyridin-3-yl)-acrylamide] | 120
13 | C#Cc1cc(CNC(=O)/C=C/c2ccc(C(F)(F)F)nc2NCC)cc(F)c1NS(C)(=O)=O [Example 249, 3-(2-Ethylamino-6-trifluoromethyl-pyridin-3-yl)-N-(3-ethynyl-5-fluoro-4-methanesulfonylamino-benzyl)-acrylamide] | 25
14 | C=Cc1cc(CNC(=O)/C=C/c2ccc(C(F)(F)F)nc2NCC)cc(F)c1NS(C)(=O)=O [Example 250, 3-(2-Ethylamino-6-trifluoromethyl-pyridin-3-yl)-N-(3-fluoro-4-methanesulfonylamino-5-vinyl-benzyl)-acrylamide] | 32
15 | CCCc1nc(C(F)(F)F)ccc1/C=C/C(=O)NCc1ccc(NS(C)(=O)=O)cc1Cl [Example 251, N-(2-Chloro-4-methanesulfonylamino-benzyl)-3-(2-propyl-6-trifluoromethyl-pyridin-3-yl)-acrylamide] | 700
16 | CCCc1nc(C(F)(F)F)ccc1/C=C/C(=O)NCc1ccc(NS(C)(=O)=O)cc1 [Example 252, N-(4-Methanesulfonylamino-benzyl)-3-(2-propyl-6-trifluoromethyl-pyridin-3-yl)-acrylamide] | 330

Row | Compound | IC50 [nM]
17 | CCCNc1nc(C(F)(F)F)ccc1/C=C/C(=O)NCc1ccc(NS(C)(=O)=O)c(Cl)c1 [Example 254, N-(3-Chloro-4-methanesulfonylamino-benzyl)-3-(2-propylamino-6-trifluoromethyl)-pyridin-3-yl-acrylamide] | 150
18 | CCNc1nc(C(F)(F)F)ccc1/C=C/C(=O)NCc1cc(F)c(NS(C)(=O)=O)cc1F [Example 255, N-(2,5-Difluoro-4-methanesulfonylamino-benzyl)-3-(2-ethylamino-6-trifluoromethyl)-pyridin-3-yl-acrylamide] | 130
19 | CCNc1nc(C(F)(F)F)ccc1/C=C/C(=O)NCc1ccc(NS(C)(=O)=O)c(F)c1 [Example 256, 3-(2-Ethylamino-6-trifluoromethyl-pyridin-3-yl)-N-(3-fluoro-4-methanesulfonylamino-benzyl)-acrylamide] | 68
20 | CCNc1nc(C(F)(F)F)ccc1/C=C/C(=O)NCc1cc(F)c(NS(C)(=O)=O)c(F)c1 [Example 257, N-(3,5-Difluoro-4-methanesulfonylamino-benzyl)-3-(2-ethylamino-6-trifluoromethyl-pyridin-3-yl)-acrylamide] | 56
21 | CCNc1nc(C(F)(F)F)ccc1/C=C/C(=O)NCc1cc(C)c(NS(C)(=O)=O)c(F)c1 [Example 258, 3-(2-Ethylamino-6-trifluoromethyl-pyridin-3-yl)-N-(3-fluoro-4-methanesulfonylamino-5-methyl-benzyl)-acrylamide] | 21
22 | CCNc1nc(C(F)(F)F)ccc1/C=C/C(=O)NCc1cc(F)c(NS(C)(=O)=O)c(C#N)c1 [Example 259, N-(3-Cyano-5-fluoro-4-methanesulfonylamino-benzyl)-3-(2-ethylamino-6-trifluoromethyl-pyridin-3-yl)-acrylamide] | 190
23 | C#Cc1cc(CNC(=O)C#Cc2ccc(C(F)(F)F)nc2NCCCC)cc(F)c1NS(C)(=O)=O [Example 260, 3-(2-Butylamino-6-trifluoromethyl-pyridin-3-yl)-propynoic acid, 3-ethynyl-5-fluoro-4-methanesulfonylamino-benzylamide] | 810
24 | CCCCc1nc(C(F)(F)F)ccc1C#CC(=O)NCc1cc(F)c(NS(C)(=O)=O)c(F)c1 [Example 261, 3-(2-Butyl-6-trifluoromethyl-pyridin-3-yl)-propynoic acid 3,5-difluoro-4-methanesulfonylamino-benzylamide] | 350
25 | CCCCc1nc(C(F)(F)F)ccc1C#CC(=O)N[C@H](C)c1cc(F)c(NS(C)(=O)=O)c(F)c1 [Example 262, 3-(2-Butyl-6-trifluoromethyl-pyridin-3-yl)-propynoic acid [1-(3,5-difluoro-4-methanesulfonylamino-phenyl)-ethyl]-amide] | 150
26 | CCCCc1nc(C(F)(F)F)ccc1C#CC(=O)NCc1ccc(NS(C)(=O)=O)cc1Cl [Example 263, 3-(2-Butyl-6-trifluoromethyl-pyridin-3-yl)-propynoic acid 2-chloro-4-methanesulfonylamino-benzylamide] | 4700
27 | CS(=O)(=O)Nc1ccc(CNC(=O)/C=C/c2ccc(C(F)(F)F)nc2CCc2ccccc2)cc1 [Example 264, N-(4-Methanesulfonylamino-benzyl)-3-(2-phenethyl-6-trifluoromethyl-pyridin-3-yl)-acrylamide] | 340
28 | CC(C)Cc1nc(C(F)(F)F)ccc1/C=C/C(=O)NCc1ccc(NS(C)(=O)=O)cc1 [Example 265, 3-(2-Isobutyl-6-trifluoromethyl-pyridin-3-yl)-N-(4-methanesulfonylamino-benzyl)-acrylamide] | 770
29 | CCCCc1nc(C(F)(F)F)ccc1C#CC(=O)NCc1ccc(NS(C)(=O)=O)cc1 [Example 266, 3-(2-Butyl-6-trifluoromethyl-pyridin-3-yl)-propynoic acid 4-methanesulfonylamino-benzylamide] | 1400
30 | C=CS(=O)(=O)Nc1ccc(CNC(=O)/C=C/c2ccc(C(F)(F)F)nc2NC(C)C)cc1 [Example 267, N-(4-Ethenesulfonylamino-benzyl)-3-(2-isopropylamino-6-trifluoromethyl-pyridin-3-yl)-acrylamide] | 450
31 | C=CS(=O)(=O)Nc1ccc(CNC(=O)/C=C/c2ccc(C(F)(F)F)nc2CCc2ccccc2)cc1 [Example 268, N-(4-Ethenesulfonylamino-benzyl)-3-(2-phenethyl-6-trifluoromethyl-pyridin-3-yl)-acrylamide] | 2900
32 | C=CS(=O)(=O)Nc1ccc(CNC(=O)/C=C/c2ccc(C(F)(F)F)nc2CC(C)C)cc1 [Example 269, N-(4-Ethenesulfonylamino-benzyl)-3-(2-isobutyl-6-trifluoromethyl-pyridin-3-yl)-acrylamide] | 1400

Reference: patent publication US7858621B2 (Amorepacific Corporation, priority 2006, dated 2010)
